Experimental data reported in PubChem BioAssay AID1919010 (Molecular Pharmacology Branch, DTP, NCI, 2023).

System: Hs578T complex spheroid growth, percent test/control
Test: Anticancer human tumor Hs578T cell line growth inhibition [AhR];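 note: luminescent viability signal as a proxy for spheroid growth; spheroids exposed to agents for one week after three days of growth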
Details: for IC50: curve of first compound; for viability, T/C: stronger effect = lower value; active = viability on the fitted dose curve at most 10% of control; inactive = the rest
Method in brief: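 Complex tumor spheroids co-cultured with HUVEC and human MSC stroma; AhR antagonists tested in combination with standard-of-care and investigational agents. Top concentration at or near clinical Cmax (else 10 microM), half-log dilutions; growth expressed as percent test/control.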

[1] = second compound 0.1 µM, first compound 0.0316 µM
[2] = second compound 0.1 µM, first compound 0.1 µM
[3] = second compound 0.1 µM, first compound 0.316 µM
[4] = second compound 0.1 µM, first compound 1 µM
[5] = second compound 0.1 µM, first compound 3.16 µM
[6] = second compound 0.1 µM, first compound 10 µM
[7] = second compound 0.316 µM, first compound 0.0316 µM
[8] = second compound 0.316 µM, first compound 0.1 µM
[9] = second compound 0.316 µM, first compound 0.316 µM
[10] = second compound 0.316 µM, first compound 1 µM
[11] = second compound 0.316 µM, first compound 3.16 µM
[12] = second compound 0.316 µM, first compound 10 µM
[13] = second compound 1 µM, first compound 0.0316 µM
[14] = second compound 1 µM, first compound 0.1 µM
[15] = second compound 1 µM, first compound 0.316 µM
[16] = second compound 1 µM, first compound 1 µM
[17] = second compound 1 µM, first compound 3.16 µM
[18] = second compound 1 µM, first compound 10 µM
[19] = second compound 3.16 µM, first compound 0.0316 µM
[20] = second compound 3.16 µM, first compound 0.1 µM
[21] = second compound 3.16 µM, first compound 0.316 µM
[22] = second compound 3.16 µM, first compound 1 µM
[23] = second compound 3.16 µM, first compound 3.16 µM
[24] = second compound 3.16 µM, first compound 10 µM
[25] = second compound 10 µM, first compound 0.0316 µM
[26] = second compound 10 µM, first compound 0.1 µM
[27] = second compound 10 µM, first compound 0.316 µM
[28] = second compound 10 µM, first compound 1 µM
[29] = second compound 10 µM, first compound 3.16 µM
[30] = second compound 10 µM, first compound 10 µM

CC1(C)CCC(CN2CCN(c3ccc(C(=O)NS(=O)(=O)c4ccc(NCC5CCOCC5)c([N+](=O)[O-])c4)c(Oc4cnc5[nH]ccc5c4)c3)CC2)=C(c2ccc(Cl)cc2)C1 + Cc1ccccc1N=Nc1ccc(NC(=O)c2ccnn2C)c(C)c1
> 10 µM: IC50 (second compound 0.1 µM) | IC50 (second compound 0.316 µM) | IC50 (second compound 1 µM) | IC50 (second compound 3.16 µM) | IC50 (second compound 10 µM)
inactive: viability, T/C [1] 117% | viability, T/C [2] 106% | viability, T/C [3] 100% | viability, T/C [4] 101% | viability, T/C [5] 97.3% | viability, T/C [6] 65.1% | viability, T/C [7] 106% | viability, T/C [8] 106% | viability, T/C [9] 113% | viability, T/C [10] 109% | viability, T/C [11] 95.9% | viability, T/C [12] 65.8% | viability, T/C [13] 103% | viability, T/C [14] 105% | viability, T/C [15] 108% | viability, T/C [16] 94.8% | viability, T/C [17] 97.2% | viability, T/C [18] 75.4% | viability, T/C [19] 94.7% | viability, T/C [20] 95.9% | viability, T/C [21] 102% | viability, T/C [22] 90.3% | viability, T/C [23] 89.5% | viability, T/C [24] 69.3% | viability, T/C [25] 66.1% | viability, T/C [26] 65.3% | viability, T/C [27] 65.9% | viability, T/C [28] 68.9% | viability, T/C [29] 67.2% | viability, T/C [30] 64.3%

CCN(c1cc(-c2ccc(CN3CCOCC3)cc2)cc(C(=O)NCc2c(C)cc(C)[nH]c2=O)c1C)C1CCOCC1 + Cc1ccccc1N=Nc1ccc(NC(=O)c2ccnn2C)c(C)c1
> 3 µM: IC50 (second compound 0.1 µM) | IC50 (second compound 0.316 µM) | IC50 (second compound 1 µM) | IC50 (second compound 3.16 µM) | IC50 (second compound 10 µM)
inactive: viability, T/C (second compound 0.1 µM, first compound 0.00949 µM) 97.5% | viability, T/C (second compound 0.1 µM, first compound 0.03 µM) 103% | viability, T/C (second compound 0.1 µM, first compound 0.0949 µM) 94.1% | viability, T/C (second compound 0.1 µM, first compound 0.3 µM) 99.4% | viability, T/C (second compound 0.1 µM, first compound 0.949 µM) 94.4% | viability, T/C (second compound 0.1 µM, first compound 3 µM) 93% | viability, T/C (second compound 0.316 µM, first compound 0.00949 µM) 106% | viability, T/C (second compound 0.316 µM, first compound 0.03 µM) 107% | viability, T/C (second compound 0.316 µM, first compound 0.0949 µM) 104% | viability, T/C (second compound 0.316 µM, first compound 0.3 µM) 111% | viability, T/C (second compound 0.316 µM, first compound 0.949 µM) 108% | viability, T/C (second compound 0.316 µM, first compound 3 µM) 93.8% | viability, T/C (second compound 1 µM, first compound 0.00949 µM) 99.9% | viability, T/C (second compound 1 µM, first compound 0.03 µM) 106% | viability, T/C (second compound 1 µM, first compound 0.0949 µM) 104% | viability, T/C (second compound 1 µM, first compound 0.3 µM) 99.7% | viability, T/C (second compound 1 µM, first compound 0.949 µM) 102% | viability, T/C (second compound 1 µM, first compound 3 µM) 94.9% | viability, T/C (second compound 3.16 µM, first compound 0.00949 µM) 95.3% | viability, T/C (second compound 3.16 µM, first compound 0.03 µM) 88% | viability, T/C (second compound 3.16 µM, first compound 0.0949 µM) 98.6% | viability, T/C (second compound 3.16 µM, first compound 0.3 µM) 83.2% | viability, T/C (second compound 3.16 µM, first compound 0.949 µM) 89.8% | viability, T/C (second compound 3.16 µM, first compound 3 µM) 82.7% | viability, T/C (second compound 10 µM, first compound 0.00949 µM) 63.9% | viability, T/C (second compound 10 µM, first compound 0.03 µM) 67.5% | viability, T/C (second compound 10 µM, first compound 0.0949 µM) 74% | viability, T/C (second compound 10 µM, first compound 0.3 µM) 66.8% | viability, T/C (second compound 10 µM, first compound 0.949 µM) 64% | viability, T/C (second compound 10 µM, first compound 3 µM) 67%

COc1cc(Nc2ncc3c(n2)-c2ccc(Cl)cc2C(c2c(F)cccc2OC)=NC3)ccc1C(=O)O + Cc1ccccc1N=Nc1ccc(NC(=O)c2ccnn2C)c(C)c1
6.76 µM: IC50 (second compound 0.316 µM)
5.67 µM: IC50 (second compound 10 µM)
inactive: viability, T/C [1] 88.2% | viability, T/C [2] 91.4% | viability, T/C [3] 78% | viability, T/C [4] 77.5% | viability, T/C [5] 71.9% | viability, T/C [6] 35.4% | viability, T/C [7] 85% | viability, T/C [8] 81.7% | viability, T/C [9] 91.8% | viability, T/C [10] 79.4% | viability, T/C [11] 67.9% | viability, T/C [12] 40.9% | viability, T/C [13] 86% | viability, T/C [14] 75% | viability, T/C [15] 92.9% | viability, T/C [16] 82.3% | viability, T/C [17] 73.2% | viability, T/C [18] 44% | viability, T/C [19] 71.5% | viability, T/C [20] 83.1% | viability, T/C [21] 85.1% | viability, T/C [22] 73.8% | viability, T/C [23] 66.7% | viability, T/C [24] 50.1% | viability, T/C [25] 68.4% | viability, T/C [26] 64.2% | viability, T/C [27] 68.3% | viability, T/C [28] 63.9% | viability, T/C [29] 62.5% | viability, T/C [30] 38.2%
6.12 µM: IC50 (second compound 0.1 µM)
7.91 µM: IC50 (second compound 1 µM)
> 10 µM: IC50 (second compound 3.16 µM)

Cn1ncnc1C1c2n[nH]c(=O)c3cc(F)cc(c23)NC1c1ccc(F)cc1 (stereo not given) + Cc1ccccc1N=Nc1ccc(NC(=O)c2ccnn2C)c(C)c1
inactive: viability, T/C (second compound 0.1 µM, first compound 0.000316 µM) 109% | viability, T/C (second compound 0.1 µM, first compound 0.001 µM) 104% | viability, T/C (second compound 0.1 µM, first compound 0.00316 µM) 105% | viability, T/C (second compound 0.1 µM, first compound 0.01 µM) 105% | viability, T/C [1] 100% | viability, T/C [2] 99.5% | viability, T/C (second compound 0.316 µM, first compound 0.000316 µM) 121% | viability, T/C (second compound 0.316 µM, first compound 0.001 µM) 117% | viability, T/C (second compound 0.316 µM, first compound 0.00316 µM) 109% | viability, T/C (second compound 0.316 µM, first compound 0.01 µM) 105% | viability, T/C [7] 106% | viability, T/C [8] 107% | viability, T/C (second compound 1 µM, first compound 0.000316 µM) 108% | viability, T/C (second compound 1 µM, first compound 0.001 µM) 105% | viability, T/C (second compound 1 µM, first compound 0.00316 µM) 107% | viability, T/C (second compound 1 µM, first compound 0.01 µM) 104% | viability, T/C [13] 107% | viability, T/C [14] 99.7% | viability, T/C (second compound 3.16 µM, first compound 0.000316 µM) 94.4% | viability, T/C (second compound 3.16 µM, first compound 0.001 µM) 103% | viability, T/C (second compound 3.16 µM, first compound 0.00316 µM) 101% | viability, T/C (second compound 3.16 µM, first compound 0.01 µM) 93.9% | viability, T/C [19] 99.9% | viability, T/C [20] 99% | viability, T/C (second compound 10 µM, first compound 0.000316 µM) 73.7% | viability, T/C (second compound 10 µM, first compound 0.001 µM) 71.2% | viability, T/C (second compound 10 µM, first compound 0.00316 µM) 76.7% | viability, T/C (second compound 10 µM, first compound 0.01 µM) 81.7% | viability, T/C [25] 69% | viability, T/C [26] 72.2%
> 0.1 µM: IC50 (second compound 0.1 µM) | IC50 (second compound 0.316 µM) | IC50 (second compound 1 µM) | IC50 (second compound 3.16 µM) | IC50 (second compound 10 µM)

NS(=O)(=O)OCC1CC(n2ccc3c(NC4CCc5ccccc54)ncnc32)CC1O (stereo not given) + Cc1ccccc1N=Nc1ccc(NC(=O)c2ccnn2C)c(C)c1
0.862 µM: IC50 (second compound 3.16 µM)
inactive: viability, T/C [1] 104% | viability, T/C [2] 82.5% | viability, T/C [3] 78.1% | viability, T/C [4] 45.4% | viability, T/C [5] 34.6% | viability, T/C [6] 30.2% | viability, T/C [7] 108% | viability, T/C [8] 78.2% | viability, T/C [9] 71.2% | viability, T/C [10] 59% | viability, T/C [11] 36.5% | viability, T/C [12] 33.7% | viability, T/C [13] 97.8% | viability, T/C [14] 74.8% | viability, T/C [15] 83.1% | viability, T/C [16] 57.7% | viability, T/C [17] 35.3% | viability, T/C [18] 34.7% | viability, T/C [19] 94.9% | viability, T/C [20] 71% | viability, T/C [21] 67.9% | viability, T/C [22] 45.5% | viability, T/C [23] 36.5% | viability, T/C [24] 28% | viability, T/C [25] 59.4% | viability, T/C [26] 47.9% | viability, T/C [27] 43.8% | viability, T/C [28] 37.5% | viability, T/C [29] 30.2% | viability, T/C [30] 25.8%
0.965 µM: IC50 (second compound 0.1 µM)
1.52 µM: IC50 (second compound 1 µM)
0.105 µM: IC50 (second compound 10 µM)
1.47 µM: IC50 (second compound 0.316 µM)
